According to patent US11447494B2, “Tricyclic amine compounds as CDK2 inhibitors” (Incyte Corporation, priority 2019, dated 2022):

How the values were obtained:
CDK2/Cyclin E1 = CDK2/Cyclin E1 (Homo sapiens (Human), UniProt P24941); assay: CDK2/Cyclin E1 HTRF enzyme activity assay; assay type: biochemical; conditions: 1 mM ATP
Protocol: CDK2/Cyclin E1 enzyme activity assays utilize full-length human CDK2 co-expressed as N-terminal GST-tagged protein with FLAG-Cyclin E1 in a baculovirus expression system (Carna Product Number 04-165). Assays are conducted in white 384-well polystyrene plates in a final reaction volume of 8 μL. CDK2/Cyclin E1 (0.25 nM) is incubated with compounds (40 nL serially diluted in DMSO) in the presence of ATP (50 μM or 1 mM) and 50 nM ULight™-labeled eIF4E-binding protein 1 (THR37/46) peptide (PerkinElmer) in assay buffer (containing 50 mM HEPES pH 7.5, 1 mM EGTA, 10 mM MgCl2, 2 mM DTT, 0.05 mg/mL BSA, and 0.01% Tween 20) for 60 minutes at room temperature. The reactions are stopped by the addition of EDTA and Europium-labeled anti-phospho-4E-BP1 antibody (PerkinElmer), for a final concentration of 15 mM and 1.5 nM, respectively. HTRF signals are read after 1 hour at room temperature on a PHERAstar FS plate reader (BMG Labtech). Data is analyzed with IDBS XLFit and GraphPad Prism 5.0 software using a three or four parameter dose response curve to determine IC50 for each compound.

[1] = test system: CCNE1-non-amplified cell lines (COV504, OV56, Igrov1); assay: Cell cycle analysis by FACS in CCNE1-non-amplified cell lines; assay type: cell-based, human
Protocol: (§1) The effect of CDK4/6-inhibition in CCNE1-amplified versus CCNE1-non-amplified cell lines was evaluated.
(§2) A similar experiment was performed in a larger set of CCNE1-amplified cell lines (COV318 and OVCAR3) and CCNE1-non-amplified cell lines (COV504, OV56, and Igrov1) (FIG. 6).
(§3) Bulk DNA was stained with DAPI. Compound-treated and DMSO treated control cells were acquired with CytoFlex (Beckman Coulter) and were analyzed using the FlowJo software. For cell cycle analysis of cells with siRNA knockdown, 72 hours after siRNA transfection, cells exposed to […] for 3 hours before detection of Click-iT Alexa Fluor® 647 azide kit.

[2] = test system: CCNE1-amplified cell lines (COV318, OVCAR3); assay: Cell cycle analysis by FACS in CCNE1-amplified cell lines; assay type: cell-based, human
Protocol: as §1, §2, §3

[3] = test system: Rb phosphorylation at S780 in CCNE1-non-amplified cell lines (COV504 and OV56); assay: Western blot of Rb phosphorylation at S780 in CCNE1-non-amplified cell lines; assay type: cell-based, human; conditions: 1 or 15 hours, various doses
Protocol: The effect of CDK4/6-inhibition on Rb phosphorylation at S780 in CCNE1-amplified versus CCNE1-non-amplified cell lines was evaluated. […] One or 15 hours after treatment, the cells were harvested and total protein was extracted and analyzed by western blot (FIG. 8).
Whole cell extracts were prepared using RIPA buffer (Thermo Scientific, 89900) with a Halt Protease and Phosphatase Inhibitor Cocktail (Thermo Scientific, 78440). Protein concentration was quantified with a BCA Protein Assay Kit (Thermo Scientific, 23225) and […] of protein lysates were loaded for SDS-PAGE using precast gradient gels (Bio-Rad, Hercules, No. 456-1094). Samples were diluted in 5× Laemmli buffer (300 mM Tris-HCl pH 6.8, 10% SDS (w/v), 5% 2-mercaptoethanol, 25% glycerol (v/v), 0.1% bromophenol blue w/v) and boiled for 5 minutes. […] of proteins were separated by 8-15% SDS-PAGE and transferred onto polyvinylidene fluoride (PVDF) membranes. Unspecific binding sites on the PVDF membranes were blocked with 5% non-fat milk in TBST (20 mM Tris-HCl, pH 7.6, 137 mM NaCl, 1% Tween-20). […] Images were captured by Luminescence/Fluorescence Imaging System Odyssey CLx Imager (LI-COR).

[4] = test system: CCNE1 amplified COV318 cells; assay: Cell cycle analysis by FACS in COV318 cells after p16 or control siRNA; assay type: cell-based, human; conditions: 100 nM, 16 hours
Protocol: To confirm the role of p16 in CDK2-sensitivity of CCNE-amplified cells, COV318 cells were treated with control or p16-specific siRNA.
as §3

Compound	IC50 (CDK2/Cyclin E1) [nM]	further results
NS(=O)(=O)c1ccc(Nc2ncc3c(n2)-n2ccnc2CO3)cc1 [Example 9, 4-((6H-Imidazo[1,2-d]pyrimido[5,4-b][1,4]oxazin-2-yl)amino)benzenesulfonamide]	≤ 50	–
CNS(=O)(=O)c1ccc(Nc2ncc3c(n2)-c2c(nc(C)n2C)CC3)c(F)c1 [Example 5, 4-((1,2-Dimethyl-4,5-dihydro-1H-imidazo[4,5-h]quinazolin-8-yl)amino)-3-fluoro-N-methylbenzenesulfonamide]	≤ 50	–
CC(=O)c1c(C)c2cnc(Nc3ccc(N4CCNCC4)cn3)nc2n(C2CCCC2)c1=O [palbociclib]	–	percentage of cells at the S phase, compared to DMSO ([1]; COV504, OV56, Igrov1, 16 hours after treatment): decreased in CCNE1-non-amplified cell lines in a dose-dependent fashion; inhibition of proliferation (cell cycle analysis) ([1]; COV504 cells, 16 hours, increasing concentrations): dose-dependent inhibition of the proliferation; percentage of cells at the S phase, compared to DMSO ([2]; COV318 and OVCAR3, 16 hours after treatment): not significantly different; inhibition of proliferation (cell cycle analysis) ([2]; OVCAR3 cells, 16 hours, increasing concentrations): not in CCNE1-amplified cells; Rb phosphorylation at S780 [3]: blocked Rb phosphorylation at S780
CNS(=O)(=O)c1ccc(Nc2ncc3c(n2)-c2c(nc(C)n2C)CC3)cc1 [Example 4, 4-((1,2-Dimethyl-4,5-dihydro-1H-imidazo[4,5-h]quinazolin-8-yl)amino)-N-methylbenzenesulfonamide]	≤ 50	–
CNS(=O)(=O)c1ccc(Nc2ncc3c(n2)-c2c(nc(C)n2C(C)C)CC3)cc1 [Example 1, 4-((1-Isopropyl-2-methyl-4,5-dihydro-1H-imidazo[4,5-h]quinazolin-8-yl)amino)-N-methylbenzenesulfonamide]	≤ 50	–
Cc1nc2c(n1C)-c1nc(Nc3ccc(S(=O)(=O)NCCN(C)C)cc3F)ncc1CC2 [Example 10, 4-((1,2-Dimethyl-4,5-dihydro-1H-imidazo[4,5-h]quinazolin-8-yl)amino)-N-(2-(dimethylamino)ethyl)-3-fluorobenzenesulfonamide]	≤ 50	–
C[C@@]1(O)CCC[C@H]1n1c(=O)ccc2cnc(NC3CCN(S(C)(=O)=O)CC3)nc21 [Compound A, 8-((1R,2R)-2-hydroxy-2-methylcyclopentyl)-2-((1-(methylsulfonyl)piperidin-4-yl)amino)pyrido[2,3-d]pyrimidin-7(8H)-one]	–	percentage of S phase cells ([4]; control siRNA-treated cells): significantly decreased; percentage of S phase cells ([4]; p16 knocked down cells, vs DMSO): not significantly decreased
Cc1nc2c(n1C)-c1nc(Nc3ccc(S(C)(=O)=O)cc3)ncc1CC2 [Example 3, 1,2-Dimethyl-N-(4-(methylsulfonyl)phenyl)-4,5-dihydro-1H-imidazo[4,5-h]quinazolin-8-amine]	≤ 50	–
Cc1nc2c(n1C)-c1nc(Nc3ccc(S(=O)(=O)NCCCN(C)C)cc3F)ncc1CC2 [Example 11, 4-((1,2-Dimethyl-4,5-dihydro-1H-imidazo[4,5-h]quinazolin-8-yl)amino)-N-(3-(dimethylamino)propyl)-3-fluorobenzenesulfonamide]	≤ 50	–
NS(=O)(=O)c1ccc(Nc2ncc3c(n2)-n2ccnc2CC3)cc1 [Example 8, 4-((5,6-Dihydroimidazo[1′,2′:1,6]pyrido[2,3-d]pyrimidin-2-yl)amino)benzenesulfonamide]	≤ 50	–
Cc1nc2c(n1C)-c1nc(Nc3ccc(S(=O)(=O)NCCO)cc3)ncc1CC2 [Example 7, 4-((1,2-Dimethyl-4,5-dihydro-1H-imidazo[4,5-h]quinazolin-8-yl)amino)-N-(2-hydroxyethyl)benzenesulfonamide]	≤ 50	–
Cc1nc2c(n1C)-c1nc(Nc3ccc(S(=O)(=O)N(C)C)cc3)ncc1CC2 [Example 2, 4-((1,2-Dimethyl-4,5-dihydro-1H-imidazo[4,5-h]quinazolin-8-yl)amino)-N,N-dimethylbenzenesulfonamide]	≤ 50	–
Cc1nc2c(n1C)-c1nc(Nc3ccc(S(=O)(=O)NC(C)C)cc3)ncc1CC2 [Example 6, 4-((1,2-Dimethyl-4,5-dihydro-1H-imidazo[4,5-h]quinazolin-8-yl)amino)-N-isopropylbenzenesulfonamide]	≤ 50	–
Cc1nc2c(n1C)-c1nc(Nc3ccc(S(=O)(=O)NCC4CCOC4)cc3F)ncc1CC2 (stereo not shown) [Example 12, 4-((1,2-Dimethyl-4,5-dihydro-1H-imidazo[4,5-h]quinazolin-8-yl)amino)-3-fluoro-N-((tetrahydrofuran-3-yl)methyl)benzenesulfonamide]	≤ 50	–
